Columns and labels:
[1] = Inhibition of NS5B polymerase in HCV genotype 1a H77 infected in human HuH7 replicon cells assessed as inhibition of viral replication after 3 days by luciferase reporter gene assay
[2] = Inhibition of NS5B polymerase in HCV genotype 1b Con1 infected in human HuH7 replicon cells assessed as inhibition of viral replication after 3 days by luciferase reporter gene assay

CCOC(=O)C(C)(C)NP(=O)(OC[C@H]1O[C@@H](n2ccc(=O)[nH]c2=O)[C@](Cl)(Br)[C@@H]1O)Oc1ccccc1 (stereo partly drawn)
EC50 [1]: 960 nM | EC50 [2]: 1170 nM

CC(C)OC(=O)C(C)(C)NP(=O)(OC[C@H]1O[C@@H](n2ccc(=O)[nH]c2=O)[C@](Cl)(Br)[C@@H]1O)Oc1ccccc1 (stereo partly drawn)
EC50 [1]: 1090 nM | EC50 [2]: 1380 nM

COCC(C)OC(=O)[C@H](C)NP(=O)(OC[C@H]1O[C@@H](n2ccc(=O)[nH]c2=O)[C@](Cl)(Br)[C@@H]1O)Oc1ccccc1 (stereo partly drawn)
EC50 [1]: 414 nM | EC50 [2]: 387 nM

CC(C)OC(=O)[C@H](C)N[P@](=O)(OC[C@H]1O[C@@H](n2ccc(=O)[nH]c2=O)[C@](Cl)(Br)[C@@H]1O)Oc1cccc2ccccc12
EC50 [1]: 106 nM | EC50 [2]: 139 nM

CCOC(=O)[C@H](C)N[P@](=O)(OC[C@H]1O[C@@H](n2ccc(=O)[nH]c2=O)[C@](Cl)(Br)[C@@H]1O)Oc1ccccc1
EC50 [1]: 298 nM | EC50 [2]: 301 nM

CC(C)C(=O)OC[C@H](C)NP(=O)(OC[C@H]1O[C@@H](n2ccc(=O)[nH]c2=O)[C@](Cl)(Br)[C@@H]1O)Oc1ccccc1 (stereo partly drawn)
EC50 [1]: 317 nM | EC50 [2]: 455 nM

CC(C)OC(=O)[C@H](C)N[P@](=O)(OC[C@H]1O[C@@H](n2ccc(=O)[nH]c2=O)[C@](Cl)(Br)[C@@H]1OC(=O)[C@@H](N)C(C)C)Oc1cccc2ccccc12
EC50 [1]: 94 nM | EC50 [2]: 99 nM

COCC(C)C(=O)OC[C@H](C)NP(=O)(OC[C@H]1O[C@@H](n2ccc(=O)[nH]c2=O)[C@](Cl)(Br)[C@@H]1O)Oc1ccccc1 (stereo partly drawn)
EC50 [1]: 592 nM | EC50 [2]: 522 nM

CCOC(=O)[C@H](C)N[P@@](=O)(OC[C@H]1O[C@@H](n2ccc(=O)[nH]c2=O)[C@](Cl)(Br)[C@@H]1O)Oc1ccccc1
EC50 [1]: 1210 nM | EC50 [2]: 1190 nM

COc1cccc(O[P@](=O)(N[C@@H](C)C(=O)OC(C)C)OC[C@H]2O[C@@H](n3ccc(=O)[nH]c3=O)[C@](Cl)(Br)[C@@H]2O)c1
EC50 [1]: 98 nM | EC50 [2]: 127 nM

COCC(=O)OC[C@H](C)NP(=O)(OC[C@H]1O[C@@H](n2ccc(=O)[nH]c2=O)[C@](Cl)(Br)[C@@H]1O)Oc1ccccc1 (stereo partly drawn)
EC50 [1]: 2500 nM | EC50 [2]: 3040 nM

CC(C)OC(=O)[C@H](C)N[P@@](=O)(OC[C@H]1O[C@@H](n2ccc(=O)[nH]c2=O)[C@](Cl)(Br)[C@@H]1O)Oc1ccccc1
EC50 [1]: 415 nM | EC50 [2]: 515 nM

CC(C)OC(=O)[C@H](C)N[P@](=O)(OC[C@H]1O[C@@H](n2ccc(=O)[nH]c2=O)[C@](Cl)(Br)[C@@H]1OC(=O)[C@@H](N)C(C)C)Oc1ccccc1
EC50 [1]: 156 nM | EC50 [2]: 167 nM

CC(C)OC(=O)[C@H](C)N[P@](=O)(OC[C@H]1O[C@@H](n2ccc(=O)[nH]c2=O)[C@](Cl)(Br)[C@@H]1O)Oc1ccccc1
EC50 [1]: 114 nM | EC50 [2]: 147 nM
